Experimental findings from patent US20040009464A1, “Methods for identifying compounds for inhibition of neoplastic lesions, and pharmacetical compositions containing such compounds” (priority 1998, published 2004) are described below.

Assay [1] concerns the target T1, cGMP binding sites of GST-cGB-PDE5 fusion protein (Homo sapiens, UniProt O76074).
T1 construct: made in house; host or cells: E. coli BL21 (DE3)
The assay is described as follows: cGMP binding assay with GST-cGB-PDE5 fusion protein.

For assay [2], the system named is cGMP PDE purified from human colon HT-29 cultured tumor cells. The assay is described as follows: cGMP PDE inhibition assay. Type of assay: biochemical. Further details: PDE Inhibition: key to the marks not given beside the values.
Assay [3] deals with PDE4 purified from human colon HT-29 cultured tumor cells. The assay can be described thus: PDE4 inhibition assay. The format is biochemical. As to conditions: PDE4 from HT-29 cells. The method, then:
(Thompson, W. J., Teraski, W. L., Epstein, P. M., Strada, S. J., Advances in Cyclic Nucleotide Research, 10:69-92, 1979, which is incorporated herein by reference). […] The mixture is incubated at 30° C. for 10 minutes with isolated PDE of this invention. Reactions are terminated, for example, by boiling the reaction mixture for 75 seconds. After cooling on ice, 100 μl of 0.5 mg/mL snake venom (O. Hannah venom available from Sigma) is added and incubated for 10 minutes at 30° C. This reaction is then terminated by the addition of an alcohol, e.g. 1 mL of 100% methanol. Assay samples are applied to 1 mL Dowex 1-X8 column; and washed with 1 mL of 100% methanol. The amount of radioactivity in the breakthrough and the wash from the column is combined and measured with a scintillation counter. The degree of phosphodiesterase inhibition is determined by calculating the amount of radioactivity in drug-treated reactions and comparing against a control sample (a reaction mixture lacking the tested compound but with drug solvent).

The subject of another assay is HT-29 cells. The assay is described as follows: Cyclic nucleotide (cGMP, cAMP) levels in HT-29 cells by radioimmunoassay. Type of assay: cell-based, human. The conditions noted are these: for effect on cAMP levels: HT-29 cells. (cAMP levels reflect the balance of adenylyl cyclase and phosphodiesterase activity.)
Assay [4] relates to SW-480 colon adenocarcinoma cells. The assay is described as follows: Apoptosis fold induction protocol (DNA fragmentation ELISA). Type of assay: cell-based, human. Further details: key to the marks not given beside the values. The conditions noted are these: qualitative activity profile.
In a further assay the test system is HCT116, Colon. The assay can be described thus: Growth inhibition, SRB assay, HCT116. The format is cell-based. The conditions noted are these: Homo sapiens, HCT-116. The text has this:
(§1) A compound's ability to inhibit tumor cell growth can be measured using the HT-29 human colon carcinoma cell line obtained from ATCC. HT-29 cells have previously been characterized as a relevant colon tumor cell culture model (Fogh, J., and Trempe, G. In. Human Tumor Cells in Vitro, J. Fogh (eds.), Plenum Press, New York, pp. 115-159, 1975). HT-29 cells are maintained in RPMI media supplemented with 5% fetal bovine calf serum (Gemini Bioproducts, Inc., Carlsbad, Calif.) and 2 mm glutamine, and 1% antibiotic-antimycotic in a humidified atmosphere of 95% air and 5% CO2 at 37° C. Briefly, HT-29 cells are plated at a density of 500 cells/well in 96 well microtiter plates and incubated for 24 hours at 37° C. prior to the addition of compound. […] After six days in culture, the cells are fixed by the addition of cold trichloroacetic acid to a final concentration of 10% and protein levels are measured using the sulforhodamine B (SRB) colorimetric protein stain assay as previously described by Skehan, P., Storeng, R., Scudiero, D., Monks, A., McMahon, J., Vistica, D., Warren, J. T., Bokesch, H., Kenney, S., and Boyd, M. R., “New Colorimetric Assay For Anticancer-Drug Screening,” J. Natl Cancer Inst. […]
(§2) To show the effectiveness of this screening method on various forms of neoplasia, compounds were tested on numerous cell lines. […] The IC50 values were determined by the SRB assay. […]
On the technique in general: In SRB staining, fixed cells bind dye roughly in proportion to their protein.

For the next assay, the system named is A-427, Lung. The assay is described as follows: Growth inhibition, SRB assay, A-427. Type of assay: cell-based. The conditions noted are these: Homo sapiens.
Excerpt: as §1, §2

Assay [5] concerns premalignant lesions in mouse mammary gland organ culture. The assay is described as follows: Mammary gland organ culture model. Type of assay: cell-based. As to conditions: FIG. 17. An excerpt:
Test compounds identified by the above methods can be tested for antineoplastic activity by their ability to inhibit the incidence of pre-neoplastic lesions in a mammary gland organ culture system. This mouse mammary gland organ culture technique has been successfully used by other investigators to study the effects of known antineoplastic agents such as certain NSAIDs, retinoids, tamoxifen, selenium, and certain natural products, and is useful for validation of the screening method of the present invention.
For example, female BALB/c mice can be treated with a combination of estradiol and progesterone daily, in order to prime the glands to be responsive to hormones in vitro. The animals are sacrificed, and thoracic mammary glands are excised aseptically and incubated for ten days in growth media supplemented with insulin, prolactin, hydrocortisone, and aldosterone. DMBA (7,12-dimethylbenz(a)anthracene) is added to medium to induce the formation of premalignant lesions Fully developed glands are then deprived of prolactin, hydrocortisone, and aldosterone, resulting in the regression of the glands but not the pre-malignant lesions.
The test compound is dissolved in DMSO and added to the culture media for the duration of the culture period. At the end of the culture period, the glands are fixed in 10% formalin, stained with alum camine, and mounted on glass slides. The incidence of forming mammary lesions is the ratio of the glands with mammary lesions to […]. The incidence of mammary lesions in test compound treated glands is compared with that of the untreated glands.
The extent of the area occupied by the mammary lesions can be quantitated by projecting an image of the gland onto a digitation pad. The area covered by the gland is traced on the pad and considered as 100% of the area. The space covered by each of the non-regressed structures is also outlined on the digitization pad and quantitated by the computer.
Mammary gland organ culture experiment were performed as previously described (Mehta and Moon, Cancer Research, 46: 5832-5835, 1986). […]

For assay [6], the target named is T2, purified cyclooxygenase (Type 1) from ram seminal vesicles (Ovis aries, UniProt P05979).
T2 sequence (P05979 25-600): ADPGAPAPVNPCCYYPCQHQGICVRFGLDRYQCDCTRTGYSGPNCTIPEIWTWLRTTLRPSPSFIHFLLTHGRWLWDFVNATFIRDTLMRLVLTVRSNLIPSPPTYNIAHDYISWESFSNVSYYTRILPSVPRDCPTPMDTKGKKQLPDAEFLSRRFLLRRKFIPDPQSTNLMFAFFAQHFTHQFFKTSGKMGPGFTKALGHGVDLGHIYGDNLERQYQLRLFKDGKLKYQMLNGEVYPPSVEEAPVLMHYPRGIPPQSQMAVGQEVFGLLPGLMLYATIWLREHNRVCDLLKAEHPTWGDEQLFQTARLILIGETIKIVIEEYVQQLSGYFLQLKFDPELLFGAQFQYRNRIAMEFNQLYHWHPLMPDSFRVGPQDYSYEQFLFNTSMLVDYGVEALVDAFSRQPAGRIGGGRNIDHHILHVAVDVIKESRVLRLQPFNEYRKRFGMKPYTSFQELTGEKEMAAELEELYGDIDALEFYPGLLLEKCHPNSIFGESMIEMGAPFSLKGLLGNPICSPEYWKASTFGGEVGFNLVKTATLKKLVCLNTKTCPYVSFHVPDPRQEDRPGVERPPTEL
The assay can be described thus: COX inhibition assay with purified cyclooxygenase. Further details: COX Inhibition: key to the marks not given beside the values. The conditions noted are these: for COX-I inhibition: FIG. 5.

The target in assay [7] is T3, PDE peak A (PDE5) from SW480 (Homo sapiens, UniProt O76074).
T3 construct: The novel PDE activity was first found in SW480 colon cancer cell lines; endogenous in cells; host or cells: SW480 colon cancer cells; DEAE-Trisacryl M fraction (peak A)
The assay is described as follows: cGMP hydrolysis by PDE peak A (PDE5) isolated from SW480 cells. The format is biochemical.

Assay [8] has as its system novel cGMP-specific PDE peak B from SW480. The assay can be described thus: cGMP hydrolysis by novel cGMP-specific PDE peak B (Section IA) from SW480 cells. Type of assay: biochemical, human. The conditions noted are these: for Ratio (IC50 Peak A/Peak B): cGMP hydrolysis.

pEC50, pIC50: −log10 of the molar value. Where two headings read alike, the source gives them in different places.

With `CCCOc1ccccc1-c1nc2nn[nH]c2c(=O)[nH]1` [Zaprinast], the “competition with cGMP (2 μM) in binding of GST-cGB-PDE5” value (shortened to “competition with cGMP (2 μM)”) in assay [1] (FIG. 24) is listed as “None of the PDE5 inhibitors showed any competition”.
The same measure, in the same setting: to `O=C([O-])C1CCN(c2nc(NCc3ccc4c(c3)OCO4)c3cc(Cl)ccc3n2)CC1.[Na+]` [Compound E4021] belongs “None of the PDE5 inhibitors showed any competition”; to `O=c1[nH]cnc2c1ncn2[C@@H]1O[C@@H]2COP(=O)(O)O[C@H]2[C@H]1O` [Cyclic IMP], “can partially compete”.
A word on the pIC50: it is the negative decadic logarithm of the IC50, by convention in mol/L. For orientation: pEC50 means the EC50 on a negative log10 scale, so that one unit is a factor of ten. By IC50 is commonly meant the midpoint of a concentration-inhibition curve. By inhibition is commonly meant the share of the control response that was lost under treatment. With `CSc1ccc(/C=C2/C(C)=C(CC(=O)O)c3cc(F)ccc32)cc1` [Sulindac sulfide], in [2] (10 μM), the “cGMP PDE inhibitory activity, % Inhibition at 10 μM” value amounted to 97%. The “PDE Inhibition” value in [2] (qualitative activity profile) was “+++”. Moreover, the pIC50 in assay [2] (read-out: IC50 for inhibition of cGMP PDE, cGMP PDE from HT-29 cells) was 4.77; in assay [3] it was 4.39. The “effect on cAMP levels” value in the assay on HT-29 cells is “unaffected”. In the assay on HT-29 cells (Homo sapiens, 0.5 h, read-out: EC50 for increase of cGMP levels, HT-29 cells treated 30 minutes), the pEC50 was 5.14. In addition, in assay [4], the Apoptosis entry was “+++”. Besides, the IC50 in the assay on HCT116, Colon worked out at 45 µM; with A-427, Lung it was 90 µM. Moreover, the “inhibition of premalignant lesions in mammary gland organ culture” value in [5] is “inactive”. Besides, the “competition with cGMP (2 μM)” value in assay [1] (FIG. 24) is “None of the PDE5 inhibitors showed any competition”. For the same molecule, the “COX Inhibition” value in [6] (qualitative activity profile) is reported as “++++”. The inhibition at 100 µM in [6] (read-out: Cyclooxygenase inhibitory activity, % Inhibition at 100 μM) stood at 97%.
Regarding `Nc1ncnc2c1ncn2[C@@H]1O[C@@H]2COP(=O)(O)O[C@H]2[C@H]1O` [Cyclic AMP], the “competition with cGMP (2 μM)” value in assay [1] is listed as “did not compete”.
As to `CCCCOC1C2OP(=O)(O)OCC2OC1n1cnc2c(N)ncnc21` (centres unmarked) [2′-O-butyl-cAMP], in assay [1] (FIG. 24), the “competition with cGMP (2 μM)” value was “did not compete”.
The same measure, in the same setting: to `Nc1nc2c(nc(Br)n2[C@@H]2O[C@@H]3COP(=O)(O)O[C@H]3[C@H]2O)c(=O)[nH]1` [Compound 8-bromo-cGMP, 8-bromo-cGMP] belongs “can partially compete”.
As to `CCCc1nn(C)c2c(=O)[nH]c(-c3cc(S(=O)(=O)N4CCN(C)CC4)ccc3OCC)nc12` [Sildenafil], in assay [7], the “inhibition of activity of peak A” value is “inhibited activity of peak A”.
Turning to `COc1cc(/C=C2/C(C)=C(CC(=O)NCc3ccccc3)c3cc(F)ccc32)cc(OC)c1OC` [Compound E, (Z)-5-Fluoro-2-methyl-1-(3,4,5-trimethoxybenzylidene)-3-indenylacetamide, N-benzyl], the “competitive (with cGMP) binding to PDE5 peak A” value in assay [7] was “does competitively (with cGMP) bind to PDE 5”. Moreover, in [8], the “competitive (with cGMP) binding to PDE peak B” value is on record as “competitively (with cGMP) binds to PDE peak B” and the “Ratio (IC50 Peak A/Peak B)” value amounted to 1.0. Further, the Apoptosis result in [4] was “++++”. Further, the “competition with cGMP (2 μM)” value in [1] (FIG. 24) is given as “None of the PDE5 inhibitors showed any competition”. In addition, the “COX-I inhibition” value in [6] is “neither test compound B and E significantly inhibit COX-I”.
On to `CC1=C(CC(=O)O)c2cc(F)ccc2/C1=C\c1ccc([S+](C)[O-])cc1` (centres unmarked) [sulindac], for which the “inhibition of premalignant lesions in mammary gland organ culture” value in assay [5] is reported as “effectively inhibit the formation of premalignant lesions”.
`O=c1ccn([C@@H]2O[C@@H]3COP(=O)(O)O[C@H]3[C@H]2O)c(=O)[nH]1` [cUMP]: in assay [1] (FIG. 24), the “competition with cGMP (2 μM)” value is recorded as “did not compete”.
The same measure, in the same setting: to `CCCCOC1C2OP(=O)(O)OCC2OC1n1cnc2c(=O)[nH]c(N)nc21` (centres unmarked) [2′-O-butyl-cGMP] belongs “did not compete”.
On to `CC1(C)C(=O)Nc2ccc(C3=NNC(=O)CC3)cc21` [Indolidan], for which the “Ratio (IC50 Peak A/Peak B)” value in [8] is less than 0.31.
`COc1cc(C=C2C(C)=C(CC(=O)O)c3cc(F)ccc32)cc(OC)c1OC` [Compound B, (Z)-5-Fluoro-2-methyl-1-(3,4,5-trimethoxybenzylidene)-3-acetic acid]: the Apoptosis entry in assay [4] was “+++”. The “competition with cGMP (2 μM)” value in assay [1] (FIG. 24) was “None of the PDE5 inhibitors showed any competition”. In addition, the “COX-I inhibition” value in [6] is “neither test compound B and E significantly inhibit COX-I”.
In the case of `Nc1ccn([C@@H]2O[C@@H]3COP(=O)(O)O[C@H]3[C@H]2O)c(=O)n1` [cCMP], the “competition with cGMP (2 μM)” value in [1] (FIG. 24) is “did not compete”.
Regarding `COc1ccc(C2CNC(=O)C2)cc1OC1CCCC1` (centres unmarked) [Rolipram], the “effect on cAMP levels” value in the assay on HT-29 cells is “increased cAMP”.
